The record followed here is patent EP4714953A1, “MELANOCORTIN 2-TYPE RECEPTOR ANTAGONIST” (Scohia Pharma, Inc., priority 2023, dated 2024).

T1 sequence (Q01718 whole entry): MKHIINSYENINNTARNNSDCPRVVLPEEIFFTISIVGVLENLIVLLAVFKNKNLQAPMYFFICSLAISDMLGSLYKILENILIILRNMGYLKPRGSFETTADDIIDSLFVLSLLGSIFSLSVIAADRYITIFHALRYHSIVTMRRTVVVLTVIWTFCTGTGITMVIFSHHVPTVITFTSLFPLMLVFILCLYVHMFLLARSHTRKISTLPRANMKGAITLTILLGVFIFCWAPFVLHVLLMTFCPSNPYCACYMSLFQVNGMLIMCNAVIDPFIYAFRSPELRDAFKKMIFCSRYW
T1 sequence (Q8TCY5 whole entry partner): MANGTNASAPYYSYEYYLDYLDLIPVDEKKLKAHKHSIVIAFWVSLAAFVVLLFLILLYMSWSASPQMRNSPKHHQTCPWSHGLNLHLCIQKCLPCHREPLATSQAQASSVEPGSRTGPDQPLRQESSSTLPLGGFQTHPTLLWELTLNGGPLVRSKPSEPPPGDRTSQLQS

This assay concerns the target T1, human MC2R (Homo sapiens, UniProt Q01718).
T1 construct: host or cells: GeneBLAzer MC2R-CRE-bla CHO-K1 cells
Briefly: Measurement of human MC2R inhibitory activity using intracellular cAMP concentration as an indicator. It is filed as cell-based. As to conditions: test compound at 1 µM; GeneBLAzer MC2R-CRE-bla CHO-K1 cells; ACTH (Human 1-24) final concentration 3 pM; intracellular cAMP by HTRF; read-out: MC2R inhibition rate (% of inhibition). In short, it runs like this:
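MC2R-CRE-bla CHO-K1 cells at 1,500/well in HBSS with 10 mM HEPES pH 7.5, 0.01% BSA and 500 µM IBMX, preincubated 20 min with compound, then stimulated with 3 pM ACTH(1-24) for 30 min at room temperature. cAMP read by HTRF; % inhibition from the ACTH-stimulated and unstimulated windows.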
For orientation: Time-resolved FRET reads energy transfer from a long-lived donor to a nearby acceptor.
One may read the inhibition as the share of the control response that was lost under treatment. Turning to `CCOc1ncccc1-c1ccc(N2C[C@H]3CN(c4ccc(C(F)(F)F)cc4C#N)C(=O)N3C[C@H]2CC)c(C(=O)N[C@H]2CNC(=O)C2)n1` [Example 56, 3-[(6R,8aS)-2-[2-cyano-4-(trifluoromethyl)phenyl]-6-ethyl-3-oxo-5,6,8,8a-tetrahydro-1H-imidazo[1,5-a]pyrazin-7-yl]-6-(2-ethoxypyridin-3-yl)-N-[(3R)-5-oxopyrrolidin-3-yl]pyridine-2-carboxamide], the inhibition at 1 µM was 100%.
The value for `CCOc1ncccc1-c1ccc(N2C[C@H]3CN(c4ccc(C(F)(F)F)cc4C#N)C(=O)N3C[C@H]2CC)c(C(=O)N[C@@H]2CC(=O)N(C)C2)n1` [Example 57, 3-[(6R,8aS)-2-[2-cyano-4-(trifluoromethyl)phenyl]-6-ethyl-3-oxo-5,6,8,8a-tetrahydro-1H-imidazo[1,5-a]pyrazin-7-yl]-6-(2-ethoxypyridin-3-yl)-N-[(3R)-1-methyl-5-oxopyrrolidin-3-yl]pyridine-2-carboxamide] was 100%.
As for `CCOc1ncccc1-c1ccc(N2C[C@H]3CN(c4ccc(F)cc4C#N)C(=O)N3C[C@H]2CC)c(C(=O)N[C@@H]2CC(=O)N(C)C2)n1` [Example 58, 3-[(6R,8aS)-2-(2-cyano-4-fluorophenyl)-6-ethyl-3-oxo-5,6,8,8a-tetrahydro-1H-imidazo[1,5-a]pyrazin-7-yl]-6-(2-ethoxypyridin-3-yl)-N-[(3R)-1-methyl-5-oxopyrrolidin-3-yl]pyridine-2-carboxamide], the figure is 100%.
As to `CCOc1ncccc1-c1ccc(N2C[C@H]3CN(C4(C(F)(F)F)CC4)C(=O)N3C[C@H]2CC)c(C(=O)N[C@@H]2CC(=O)N(C)C2)n1` [Example 59, 3-[(6R,8aS)-6-ethyl-3-oxo-2-[1-(trifluoromethyl)cyclopropyl]-5,6,8,8a-tetrahydro-1H-imidazo[1,5-a]pyrazin-7-yl]-6-(2-ethoxy-3-pyridinyl)-N-[(3R)-1-methyl-5-oxopyrrolidin-3-yl]pyridine-2-carboxamide], the inhibition at 1 µM came to 87%.
As for `CCOc1ncccc1-c1ccc(N2C[C@H]3CN(c4ccc(Cl)cc4C(F)(F)F)C(=O)N3C[C@H]2C)c(C(=O)N[C@@H]2CC(=O)N(C)C2)n1` [Example 60, 3-[(6R,8aS)-2-[4-chloro-2-(trifluoromethyl)phenyl]-6-methyl-3-oxo-5,6,8,8a-tetrahydro-1H-imidazo[1,5-a]pyrazin-7-yl]-6-(2-ethoxy-3-pyridinyl)-N-[(3R)-1-methyl-5-oxopyrrolidin-3-yl]pyridine-2-carboxamide], the figure is 97%.
The value for `COc1ncccc1-c1ccc(N2C[C@H]3CN(c4ccc(Cl)cc4C(F)(F)F)C(=O)N3C[C@H]2C)c(C(=O)N[C@@H]2CC(=O)N(C)C2)n1` [Example 61, 3-[(6R,8aS)-2-[4-chloro-2-(trifluoromethyl)phenyl]-6-methyl-3-oxo-5,6,8,8a-tetrahydro-1H-imidazo[1,5-a]pyrazin-7-yl]-6-(2-methoxy-3-pyridinyl)-N-[(3R)-1-methyl-5-oxopyrrolidin-3-yl]pyridine-2-carboxamide] was 97%.
As for `CCOc1ccccc1-c1ccc(N2C[C@H]3CN(C4(C(F)(F)F)CC4)C(=O)N3C[C@H]2CC)c(C(=O)N[C@@H]2CC(=O)N(C)C2)n1` [Example 62, 3-[(6R,8aS)-6-ethyl-3-oxo-2-[1-(trifluoromethyl)cyclopropyl]-5,6,8,8a-tetrahydro-1H-imidazo[1,5-a]pyrazin-7-yl]-6-(2-ethoxyphenyl)-N-[(3R)-1-methyl-5-oxopyrrolidin-3-yl]pyridine-2-carboxamide], the figure is 98%; as for `CCOc1ccccc1-c1ccc(N2C[C@H]3CN(c4ccc(Cl)cc4C(F)(F)F)C(=O)N3C[C@H]2C)c(C(=O)N[C@@H]2CC(=O)N(C)C2)n1` [Example 63, 3-[(6R,8aS)-2-[4-chloro-2-(trifluoromethyl)phenyl]-6-methyl-3-oxo-5,6,8,8a-tetrahydro-1H-imidazo[1,5-a]pyrazin-7-yl]-6-(2-ethoxyphenyl)-N-[(3R)-1-methyl-5-oxopyrrolidin-3-yl]pyridine-2-carboxamide], 100%.
Turning to `COc1ccccc1-c1ccc(N2C[C@H]3CN(c4ccc(Cl)cc4C(F)(F)F)C(=O)N3C[C@H]2C)c(C(=O)N[C@@H]2CC(=O)N(C)C2)n1` [Example 64, 3-[(6R,8aS)-2-[4-chloro-2-(trifluoromethyl)phenyl]-6-methyl-3-oxo-5,6,8,8a-tetrahydro-1H-imidazo[1,5-a]pyrazin-7-yl]-6-(2-methoxyphenyl)-N-[(3R)-1-methyl-5-oxopyrrolidin-3-yl]pyridine-2-carboxamide], the inhibition at 1 µM is 95%.
As for `CCOc1ncccc1-c1ccc(N2C[C@H]3CN(C4(C(F)(F)F)CCC4)C(=O)N3C[C@H]2CC)c(C(=O)N[C@@H]2CC(=O)N(C)C2)n1` [Example 65, 3-[(6R,8aS)-6-ethyl-3-oxo-2-[1-(trifluoromethyl)cyclobutyl]-5,6,8,8a-tetrahydro-1H-imidazo[1,5-a]pyrazin-7-yl]-6-(2-ethoxy-3-pyridinyl)-N-[(3R)-1-methyl-5-oxopyrrolidin-3-yl]pyridine-2-carboxamide], the figure is 89%.
Take `CCOc1ccccc1-c1ccc(N2C[C@H]3CN(C4(C(F)(F)F)CCC4)C(=O)N3C[C@H]2CC)c(C(=O)N[C@@H]2CC(=O)N(C)C2)n1` [Example 66, 3-[(6R,8aS)-6-ethyl-3-oxo-2-[1-(trifluoromethyl)cyclobutyl]-5,6,8,8a-tetrahydro-1H-imidazo[1,5-a]pyrazin-7-yl]-6-(2-ethoxyphenyl)-N-[(3R)-1-methyl-5-oxopyrrolidin-3-yl]pyridine-2-carboxamide]: the inhibition at 1 µM was found to be 97%.
The value for `CCOc1ccccc1-c1ccc(N2C[C@H]3CN(c4ccc(Cl)cc4C(F)(F)F)C(=O)N3C[C@H]2CC)c(C(=O)N[C@@H]2CC(=O)N(C)C2)n1` [Example 67, 3-[(6R,8aS)-2-[4-chloro-2-(trifluoromethyl)phenyl]-6-ethyl-3-oxo-5,6,8,8a-tetrahydro-1H-imidazo[1,5-a]pyrazin-7-yl]-6-(2-ethoxyphenyl)-N-[(3R)-1-methyl-5-oxopyrrolidin-3-yl]pyridine-2-carboxamide] was 94%; that for `CC[C@@H]1CN2C(=O)N(c3ccc(Cl)cc3C(F)(F)F)C[C@@H]2CN1c1ccc(-c2ccccc2OC)nc1C(=O)N[C@@H]1CC(=O)N(C)C1` [Example 68, 3-[(6R,8aS)-2-[4-chloro-2-(trifluoromethyl)phenyl]-6-ethyl-3-oxo-5,6,8,8a-tetrahydro-1H-imidazo[1,5-a]pyrazin-7-yl]-6-(2-methoxyphenyl)-N-[(3R)-1-methyl-5-oxopyrrolidin-3-yl]pyridine-2-carboxamide] was 96%.
As for `CC[C@@H]1CN2C(=O)N(c3ccc(Cl)cc3C(F)(F)F)C[C@@H]2CN1c1ccc(-c2cccnc2OC)nc1C(=O)N[C@@H]1CC(=O)N(C)C1` [Example 69, 3-[(6R,8aS)-2-[4-chloro-2-(trifluoromethyl)phenyl]-6-ethyl-3-oxo-5,6,8,8a-tetrahydro-1H-imidazo[1,5-a]pyrazin-7-yl]-6-(2-methoxy-3-pyridinyl)-N-[(3R)-1-methyl-5-oxopyrrolidin-3-yl]pyridine-2-carboxamide], the figure is 92%.
